Common to all, as to format: cell-based, mouse
The subject of one experiment is Stat3. Put plainly: Real-time PCR, Stat3 mRNA in ES cells. Conditions: for Stat3 Gene expression level: ES cells, control group = 100%. Here is the method:
An experimental group medium (BP5, BP10, BP20 or BP40) and a control group medium (without BP) were added respectively to perform the following steps. ES cells were cultured with an initial density of 1×10^4 per well in a 6-well culture dish. The medium was removed until the cells growth to be about 70 to 80% confluence, and then 1 ml TRIzol (Invitrogen) was added into each well. The cells were incubated for 5 minutes, and then was scraped by a spatula and placed into a 1.5 ml microtube to be lysed adequately. Chloroform (0.2 ml) was added into the microtubes. The mixture was shaken up and down for 15 seconds, and then incubated at room temperature for 2 to 3 minutes. Thereafter, the mixture was centrifuged at 12000 rpm at 4° C. for 15 minutes, and the supernatant was removed into another 1.5 ml microtube and isopropanol (0.5 ml) was added into the microtube with well mixing. The mixture was incubated at room temperature for 10 minutes and then centrifuged at 12000 rpm at 4° C. for 10 minutes. The supernatant was then removed. One ml of 70% ethanol containing DEPC.H2O was used to wash the remaining sediment. The sediment was centrifuged at 7500 rpm at 4° C. for 5 minutes. The supernatant was removed. The sediment was dried by vacuum suction. The dried samples were dissolved in about 0.01 to 0.02 ml of DEPC.H2O to obtain the experimental group RNA and control group RNA. Both groups were stored at −80° C.
The OD value of RNA samples in both groups obtained from the above Experiment I were measured at a wavelength of 260 nm (RNA: OD260=1 for a 40 μg/mL solution). Each RNA sample (2 μl) was added with RNA-free water until the volume of the sample reached 10 μl. Two μl oligo (dT) (100 μg/ml) was added into each sample, and the samples were incubated at 65° C. for 5 minutes. Then, the samples were immediately placed on ice and spun down. Next, 6.5 μl of a reaction solution [4 μl of 5× buffer+1 μl of 0.1 M DTT+1 μl of RNase out+0.5 μl of SSIII (Invitrogen)] was added into each of the samples, and the samples were incubated at 50° C. for about 30 to 60 minutes and at 75° C. for 15 minutes to obtain the experimental group cDNA and control group cDNA. Both groups were stored at −80° C.
This experiment was used to detect the expression levels of ES cell-related genes, i.e., Oct4 and Sox2, etc. First, 4 μl of the experimental group cDNA or control group cDNA was added into each well of a 96-well micro-reaction plate, and mixed with 6 μl of a reaction solution [0.5 μl of 6 μM forward primer+0.5 μl of 6 μM reverse primer+5 μl of SYBR Green PCR Master mix (Roche)], wherein the SYBR Green PCR Master mix included the reagents needed for Q-PCR, such as dNTPs, MgCl, Taq DNA polymerase and 2×SYBR® Green I solution. […] The cycle threshold (CT) values were measured. […]
In general terms: Quantitative PCR measures a nucleic acid by following its amplification.

In a further experiment the test system is Jak2. Nature of the experiment: Western blot assay, Jak2 protein in ES cells. As to conditions: for Jak2 Protein expression level: ES cells, control group = 100%. The source says:
According to the known research at present, Jak2 and Stat3 proteins could be phosphorylated to form the active forms, and the Jak2-Stat3 signaling pathway will be activated when Jak2 and Stat3 were phosphorylated.
An experimental group medium (BP5 or BP10), a LIF-containing medium (without BP), and a control group medium (without BP) were used respectively to culture ES cells with an initial density of 1×10^4 per well in a 6-well culture dish. The medium was removed until the cells growth to be about 70 to 80% confluence. The proteins were extracted to conduct the Western blot assay by using rabbit anti-Jak2 antibody (Cell Signaling Technology), mouse anti-phospho-Jak2 antibody (Cell Signaling Technology), rabbit anti-Stat3 antibody (BD) and rabbit anti-phospho-Stat3 antibody (Cell Signaling Technology), to determine whether BP would affect the protein expression levels of the genes in the Jak-Stat3 signaling pathway.
A general note: Immunoblotting shows a protein as a band on a membrane.

Experiment [1] relates to Nanog. Put plainly: Immunofluorescence staining, Nanog in ES cells. As to conditions: for Nanog expression level: ES cells, 72 hours, control group = 100%. The source says: (§1) Nanog and SSEA1 are also marker proteins of stem cells, and their expression levels could be measured by immunofluorescence staining to further confirm whether BP can effectively maintain the self-renewal and pluripotency of stem cells.
(§2) An experimental group medium (BP5, BP10, BP20 or BP40), a LIF-containing medium (without BP), and a control group medium (without BP) were used respectively in a 6-well culture dish which comprises a slide in each well to culture ES cells with an initial density of 1×10^4 per well for 72 hours. The medium was removed and the cells were washed with PBS. Next, PBS was removed, and then 4% paraformaldehyde was added to perform the fixation at room temperature for 10 minutes. Next, paraformaldehyde was removed, and then slides were washed with 0.1% Tween-20/1X PBS three times for 10 minutes each time. The 0.3% Tween-20/1X PBS was added and held at room temperature for 30 minutes to penetrate the cell membrane to benefit the dye entry. After the slides were washed three times with 0.1% Tween-20, 5% FBS/1×PBS was added to perform a blocking reaction at room temperature for 2 hours, and then reacting with the primary antibody [anti-Nanog (Novus) or anti-SSEA1 (Millipore)] at a dilution of 1:100 at room temperature overnight. Slides were then washed 5 times with 0.1% Tween-20, then reacting with the secondary antibody [FITC-conjugated anti-mouse IgG or TRITC-conjugated anti-rabbit IgG (Sigma-Aldrich)] at a dilution of 1:500. After washed with 0.1% Tween-20 for 10 minutes, slides were mounted with the DAPI-containing UltraCruz™ Mounting medium and observed using an inverted fluorescent microscope.

Experiment [2] concerns Nanog. Put plainly: Immunofluorescence staining, Nanog in iPS cells. Conditions: 72 hours, control group = 100%.
Text: as §1, §2
By using the above culture conditions, an experimental group medium (BP5, BP10, BP20 or BP40), a LIF-containing medium (without BP), and a control group medium (without BP) were used respectively to culture iPS cells. The staining of iPS cells was performed by using the steps described above.

Where [3] appears, read: BP10 medium (about 10 μg BP/ml).
The mark [4] stands for this setting: BP20 medium (about 20 μg BP/ml).
Setting [5] is: BP40 medium (about 40 μg BP/ml).
Setting [6] is: LIF-containing medium (LIF 4 ng/ml, without BP).

Consider `CCCC=C1OC(=O)c2ccccc21` [BP, n-butylidenephthalide], for which the “Stat3 Gene expression level” value in the experiment on Stat3 (BP5 medium (about 5 μg BP/ml)) is 169%; in the experiment with Stat3 (setting [3]), 151%. In addition, the “mRNA expression level of Stat3” value in the experiment with Stat3 (BP-containing ES cell medium (BP5 or BP10), result in words) is given as “significantly up-regulated”. The entries for the “Jak2 Protein expression level” value with Jak2 (BP5 medium (about 5 μg BP/ml)) and in the experiment with Jak2 (setting [3]) were 109% and 134%, respectively. In addition, the “total protein expression and phosphorylated protein expression level of Jak2” value in the experiment on Jak2 (ES cell medium containing BP, result in words) is “increased significantly”. Further, the Nanog expression level in the experiment with Nanog [1] (BP5 medium (about 5 μg BP/ml)) worked out at 113.22%; in the experiment on Nanog [1] (setting [3]), 183.28%; in the experiment on Nanog [1] (setting [4]), 213.8%; in the experiment with Nanog [1] (setting [5]), 212.83%; in the experiment with Nanog [2] (BP5 medium (about 5 μg BP/ml)), 142%; in the experiment with Nanog [2] (setting [3]), 305%. Moreover, the Nanog expression level stood at 358% in the experiment on Nanog [2] (setting [4]) and 442% with Nanog [2] (setting [5]). Also, the “expression level of Nanog” value in the experiment on Nanog [1] (BP-containing ES cell medium vs control group (without BP), result in words) was “higher”.

Regarding “LIF: multifunctional cell factor used to maintain pluripotency of stem cells; LIF-containing medium (4 ng/ml, without BP) as comparison”, the “Stat3 Gene expression level” value with Stat3 (setting [6]) is 194%. For the same molecule, the “Jak2 Protein expression level” value with Jak2 (setting [6]) is on record as 62%. Moreover, the values for the Nanog expression level in the experiment on Nanog [1] (setting [6]) and with Nanog [2] (setting [6]) were 204.46% and 386%, respectively.

Source of the values: US20150056702A1, “METHOD AND KIT FOR CULTURING STEM CELLS” (China Medical University, priority 2013, published 2015).
